Data on 13 molecules can be found in patent publication US20180263996A1, “ARYL SULTAM DERIVATIVES AS RORc MODULATORS” (Genentech, Inc., priority 2015, published 2018).

As a reminder, the IC50 is the concentration that gives 50% inhibition.

For this assay, the target named is T1, RORc (Homo sapiens, UniProt P51449).
T1 construct: host or cells: E. coli
T1 sequence (P51449 269-508 limits assumed): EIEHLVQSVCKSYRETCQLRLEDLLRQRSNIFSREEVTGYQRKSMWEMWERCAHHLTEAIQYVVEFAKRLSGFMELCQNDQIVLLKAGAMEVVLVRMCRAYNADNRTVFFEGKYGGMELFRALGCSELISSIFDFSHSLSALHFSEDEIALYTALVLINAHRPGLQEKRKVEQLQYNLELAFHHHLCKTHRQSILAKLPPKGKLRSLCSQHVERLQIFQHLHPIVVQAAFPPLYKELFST
The assay is described as follows: In Vitro RORc Ligand Binding Assay. The settings on record: IC50 values for RORc.
As for `C[C@H]1CC[C@H](c2ccccc2)S(=O)(=O)N1Cc1ccc(C2(C(=O)NC3CC(O)C3)CCOCC2)cc1F` (stereo partly drawn) [Compound 34, 4-[3-fluoro-4-[[(3S,6R)-3-methyl-1,1-dioxo-6-phenyl-thiazinan-2-yl]methyl]phenyl]-N-(3-hydroxycyclobutyl)tetrahydropyran-4-carboxamide], the 50% inhibitory concentration (IC50) was 0.0136 µM.

Turning to `C[C@H]1CC[C@H](c2ccccc2)S(=O)(=O)N1Cc1ccc(C2(C(=O)NC3(CO)CC3)CCOCC2)cc1F` [Compound 35, 4-[3-fluoro-4-[[(3S,6R)-3-methyl-1,1-dioxo-6-phenyl-thiazinan-2-yl]methyl]phenyl]-N-[1-(hydroxymethyl)cyclopropyl] tetrahydropyran-4-carboxamide], the half-maximal inhibitory concentration (IC50) stood at 0.0429 µM.

Molecule `C[C@H]1CC[C@H](c2ccccc2)S(=O)(=O)N1Cc1cc(F)c(C2(C(=O)N[C@H]3C[C@H](O)C3)CCOCC2)cc1F` [Compound 37, 4-[2,5-difluoro-4-[[(3S,6R)-3-methyl-1,1-dioxo-6-phenyl-thiazinan-2-yl]methyl]phenyl]-N-(3-hydroxycyclobutyl) tetrahydropyran-4-carboxamide] displayed an IC50 of 0.0476 µM.

For the molecule `C[C@H]1CC[C@H](c2ccccc2)S(=O)(=O)N1Cc1cc(F)c(C2(C(=O)N[C@H]3C[C@@H](O)C3)CCOCC2)cc1F` [Compound 38, 4-[2,5-difluoro-4-[[(3S,6R)-3-methyl-1,1-dioxo-6-phenyl-thiazinan-2-yl]methyl]phenyl]-N-(3-hydroxycyclobutyl) tetrahydropyran-4-carboxamide], the 50% inhibitory concentration (IC50) is 0.0326 µM.

For the molecule `C[C@H]1CC[C@H](c2ccccc2)S(=O)(=O)N1Cc1cc(F)c(C2(OCC(=O)NC3CC3)CCOCC2)cc1F` [Compound 41, N-cyclopropyl-2-[4-[2,5-difluoro-4-[[(3S,6R)-3-methyl-1,1-dioxo-6-phenyl-thiazinan-2-yl]methyl]phenyl]tetrahydropyran-4-yl]oxy-acetamide], the IC50 was found to be 0.0068 µM.

Consider `C[C@H]1CC[C@H](c2ccccc2)S(=O)(=O)N1Cc1cc(F)c([C@@]23C[C@@H]2COC3=O)cc1F` [Compound 43, (1R,5S)-1-[2,5-difluoro-4-[[(3S,6R)-3-methyl-1,1-dioxo-6-phenyl-thiazinan-2-yl]methyl]phenyl]-3-oxabicyclo[3.1.0]hexan-2-one], for which the concentration for half-maximal inhibition (IC50) was found to be 0.0394 µM.

In turn, `C[C@H]1CC[C@H](c2ccccc2)S(=O)(=O)N1Cc1cc(F)c(C2(C(N)=O)CC(CC#N)C2)cc1F` (stereo partly drawn) [Compound 44, 3-(cyanomethyl)-1-[2,5-difluoro-4-[[(3S,6R)-3-methyl-1,1-dioxo-6-phenyl-thiazinan-2-yl]methyl]phenyl]cyclobutane-carboxamide] came in with a 50% inhibitory concentration (IC50) of 0.0185 µM.

Regarding `CN/C(=C\C#N)NC(C)c1cc(F)c(CN2[C@@H](C)CC[C@H](c3ccccc3)S2(=O)=O)cc1F` (stereo partly drawn) [Compound 45, 3-[1-[2,5-difluoro-4-[[(3S,6R)-3-methyl-1,1-dioxo-6-phenyl-thiazinan-2-yl]methyl]phenyl]ethylamino]-3-(methylamino)prop-2-enenitrile; formic acid], the IC50 was 0.695 µM.

Molecule `C[C@H]1CC[C@H](c2ccccc2)S(=O)(=O)N1Cc1cc(F)c([C@]2(C(N)=O)C[C@](C)(O)C2)cc1F` [Compound 48, 1-[2,5-difluoro-4-[[(3S,6R)-3-methyl-1,1-dioxo-6-phenyl-thiazinan-2-yl]methyl]phenyl]-3-hydroxy-3-methyl-cyclobutanecarboxamide] showed a concentration for half-maximal inhibition (IC50) of 0.0047 µM.

In the case of `C[C@H]1CC[C@H](c2ccccc2)S(=O)(=O)N1Cc1cc(F)c([C@]2(C(N)=O)C[C@@](C)(O)C2)cc1F` [Compound 49, 1-[2,5-difluoro-4-[[(3S,6R)-3-methyl-1,1-dioxo-6-phenyl-thiazinan-2-yl]methyl]phenyl]-3-hydroxy-3-methyl-cyclobutanecarboxamide], the concentration for half-maximal inhibition (IC50) was found to be 0.199 µM.

The molecule `CC(NCc1cnoc1)c1cc(F)c(CN2[C@@H](C)CC[C@H](c3ccccc3)S2(=O)=O)cc1F` (stereo partly drawn) [Compound 50, 1-[2,5-difluoro-4-[[(3S,6R)-3-methyl-1,1-dioxo-6-phenyl-thiazinan-2-yl]methyl]phenyl]-N-(isoxazol-4-ylmethyl)ethanamine] gave an IC50 of 0.022 µM.

`CC(NC(=O)Cc1cnoc1)c1cc(F)c(CN2[C@@H](C)CC[C@H](c3ccccc3)S2(=O)=O)cc1F` (stereo partly drawn) [Compound 52, N-[1-[2,5-difluoro-4-[[(3S,6R)-3-methyl-1,1-dioxo-6-phenyl-thiazinan-2-yl]methyl]phenyl]ethyl]-2-isoxazol-4-yl-acetamide] had an IC50 of 0.101 µM.

In turn, `CC(NCc1cocn1)c1cc(F)c(CN2[C@@H](C)CC[C@H](c3ccccc3)S2(=O)=O)cc1F` (stereo partly drawn) [Compound 54, 1-[2,5-difluoro-4-[[(3S,6R)-3-methyl-1,1-dioxo-6-phenyl-thiazinan-2-yl]methyl]phenyl]-N-(oxazol-4-ylmethyl)ethanamine] came in with a 50% inhibitory concentration (IC50) of 0.255 µM.
